# Reference: US11173162B2, “Bicyclic heterocycles as FGFR4 inhibitors” (Incyte Corporation, priority 2015, dated 2021)
# Test system: FGFR3 enzyme
# Experiment: FGFR Enzymatic Assay (FRET peptide phosphorylation), FGFR3
# Assay type: biochemical
# Conditions: IC50 ratio showing FGFR3 selectivity; Table 2A, pre-incubated for 4 hours
# Procedure: The inhibitor potency of the exemplified compounds was measured in an enzyme assay that measures peptide phosphorylation using FRET measurements to detect product formation. Inhibitors were serially diluted in DMSO and a volume of 0.5 μL was transferred to the wells of a 384-well plate.
# GraphPad prism3 was used to analyze the data.
Compound,FGFR1/FGFR3,FGFR4/FGFR3
"COc1cc(OC)c(F)c(N2Cc3cnc(-c4cn(CC#N)nc4C)cc3C3(CC3)C2=O)c1F [Example 153, 2-(4-(2′-(2,6-difluoro-3,5-dimethoxyphenyl)-3′-oxo-2′,3′-dihydro-1′H-spiro[cyclopropane-1,4′-[2,7]naphthyridine]-6′-yl)-3-methyl-1H-pyrazol-1-yl)acetonitrile]",>5,>3
"COc1cc(OC)c(F)c(N2Cc3cnc(-c4cn(C5CCN(CC#N)C5)nc4C)cc3C3(CC3)C2=O)c1F (stereo not drawn) [Example 154, 2-(3-(4-(2′-(2,6-difluoro-3,5-dimethoxyphenyl)-3′-oxo-2′,3′-dihydro-1′H-spiro[cyclopropane-1,4′-[2,7]naphthyridine]-6′-yl)-3-methyl-1H-pyrazol-1-yl)pyrrolidin-1-yl)acetonitrile]",>5,>3
"COC(=O)N1CCC(N2C(=O)N(c3c(F)c(OC)cc(OC)c3F)Cc3cnc(-c4cn(C)nc4C)cc32)CC1 [Example 122, Methyl 4-(3-(2,6-difluoro-3,5-dimethoxyphenyl)-7-(1,3-dimethyl-1H-pyrazol-4-yl)-2-oxo-3,4-dihydropyrido[4,3-d]pyrimidin-1(2H)-yl)piperidine-1-carboxylate]",>5,>5
"COc1cc(OC)c(F)c(N2Cc3cnc(-c4cn(C)nc4C)cc3N(Cc3cncnc3)C2=O)c1F [Example 84, 3-(2,6-difluoro-3,5-dimethoxyphenyl)-7-(1,3-dimethyl-1H-pyrazol-4-yl)-1-(pyrimidin-5-ylmethyl)-3,4-dihydropyrido[4,3-d]pyrimidin-2(1H)-one]",>5,>5
"COc1cc(OC)c(F)c(N2Cc3cnc(-c4cn(Cc5cccnc5)nc4C)cc3C3(CC3)C2=O)c1F [Example 155, 2′-(2,6-difluoro-3,5-dimethoxyphenyl)-6′-(3-methyl-1-(pyridin-3-ylmethyl)-1H-pyrazol-4-yl)-1′H-spiro[cyclopropane-1,4′-[2,7]naphthyridin]-3′(2′H)-one]",>5,>1
"COc1cc(OC)c(F)c(N2Cc3cnc(-c4cn(C)nc4C)cc3N(Cc3ccnc(C)c3)C2=O)c1F [Example 68, 3-(2,6-difluoro-3,5-dimethoxyphenyl)-7-(1,3-dimethyl-1H-pyrazol-4-yl)-1-((2-methylpyridin-4-yl)methyl)-3,4-dihydropyrido[4,3-d]pyrimidin-2(1H)-one]",>5,>5
"CCN1C(=O)N(c2c(F)c(OC)cc(OC)c2F)Cc2cnc(-c3ccc(CN4CC[C@H](C#N)C4)cc3)cc21 [Example 25, (S)-1-(4-(3-(2,6-difluoro-3,5-dimethoxyphenyl)-1-ethyl-2-oxo-1,2,3,4-tetrahydropyrido[4,3-d]pyrimidin-7-yl)benzyl)pyrrolidine-3-carbonitrile]",>5,>5
"COc1cc(OC)c(F)c(N2Cc3cnc(-c4cn(C)nc4C)cc3N(c3ccc4ccncc4c3)C2=O)c1F [Example 63, 3-(2,6-difluoro-3,5-dimethoxyphenyl)-7-(1,3-dimethyl-1H-pyrazol-4-yl)-1-(isoquinolin-7-yl)-3,4-dihydropyrido[4,3-d]pyrimidin-2(1H)-one]",>10,>5
"COc1cc(OC)c(F)c(N2Cc3cnc(-c4cn(C)nc4C)cc3N(C3(C#N)CC3)C2=O)c1F [Example 91, 1-(3-(2,6-difluoro-3,5-dimethoxyphenyl)-7-(1,3-dimethyl-1H-pyrazol-4-yl)-2-oxo-3,4-dihydropyrido[4,3-d]pyrimidin-1(2H)-yl)cyclopropanecarbonitrile]",>5,>5
"COc1cc(OC)c(F)c(N2Cc3cnc(-c4cnn(C5(CC#N)CN(C(C)=O)C5)c4)cc3C3(CC3)C2=O)c1F [Example 56, 2-(1-acetyl-3-(4-(2′-(2,6-difluoro-3,5-dimethoxyphenyl)-3′-oxo-2′,3′-dihydro-1′H-spiro[cyclopropane-1,4′-[2,7]naphthyridine]-6′-yl)-1H-pyrazol-1-yl)azetidin-3-yl)acetonitrile]",>5,>1
"COc1cc(OC)c(F)c(N2Cc3cnc(-c4cnn(CCN5CCOCC5)c4)cc3C3(CC3)C2=O)c1F [Example 157, 2′-(2,6-difluoro-3,5-dimethoxyphenyl)-6′-(1-(2-morpholinoethyl)-1H-pyrazol-4-yl)-1′H-spiro[cyclopropane-1,4′-[2,7]naphthyridin]-3′(2′H)-one]",>5,>3
"CNC(=O)c1ccc(-c2cc3c(cn2)CN(c2c(F)c(OC)cc(OC)c2F)C(=O)C32CC2)cc1 [Example 19, 4-(2′-(2,6-difluoro-3,5-dimethoxyphenyl)-3′-oxo-2′,3′-dihydro-1′H-spiro[cyclopropane-1,4′-[2,7]naphthyridine]-6′-yl)-N-methylbenzamide]",>5,–
"COc1cc(OC)c(F)c(N2Cc3cnc(-c4cn(CCN5CCOCC5)nc4C)cc3C3(CC3)C2=O)c1F [Example 52, 2′-(2,6-difluoro-3,5-dimethoxyphenyl)-6′-(3-methyl-1-(2-morpholinoethyl)-1H-pyrazol-4-yl)-1′H-spiro[cyclopropane-1,4′-[2,7]naphthyridin]-3′(2′H)-one]",>10,>1
"COc1cc(OC)c(F)c(N2Cc3cnc(-c4cn(C)nc4C)cc3N(Cc3cc(C(C)C)on3)C2=O)c1F [Example 93, 3-(2,6-difluoro-3,5-dimethoxyphenyl)-7-(1,3-dimethyl-1H-pyrazol-4-yl)-1-((5-isopropylisoxazol-3-yl)methyl)-3,4-dihydropyrido[4,3-d]pyrimidin-2(1H)-one]",>5,>5
"COc1cc(OC)c(F)c(N2Cc3cnc(-c4cnn(C5CCN(S(C)(=O)=O)C5)c4)cc3C3(CC3)C2=O)c1F (stereo not drawn) [Example 147, 2′-(2,6-difluoro-3,5-dimethoxyphenyl)-6′-(1-(1-(methylsulfonyl)pyrrolidin-3-yl)-1H-pyrazol-4-yl)-1′H-spiro[cyclopropane-1,4′-[2,7]naphthyridin]-3′(2′H)-one]",>10,>3
"COc1cc(OC)c(F)c(N2Cc3cnc(-c4cn(C)nc4C)cc3N(c3ccc4[nH]ncc4c3)C2=O)c1F [Example 134, 3-(2,6-difluoro-3,5-dimethoxyphenyl)-7-(1,3-dimethyl-1H-pyrazol-4-yl)-1-(1H-indazol-5-yl)-3,4-dihydropyrido[4,3-d]pyrimidin-2(1H)-one]",>3,>5
"COc1cc(OC)c(F)c(N2Cc3cnc(-c4cn(C)nc4C)cc3N(Cc3cnn(CC#N)c3)C2=O)c1F [Example 125, 2-(4-((3-(2,6-difluoro-3,5-dimethoxyphenyl)-7-(1,3-dimethyl-1H-pyrazol-4-yl)-2-oxo-3,4-dihydropyrido[4,3-d]pyrimidin-1(2H)-yl)methyl)-1H-pyrazol-1-yl)acetonitrile]",>5,>5
"COc1cc(OC)c(F)c(N2Cc3cnc(-c4cn(C)nc4C)cc3N(c3cc(F)cc(F)c3)C2=O)c1F [Example 103, 3-(2,6-difluoro-3,5-dimethoxyphenyl)-1-(3,5-difluorophenyl)-7-(1,3-dimethyl-1H-pyrazol-4-yl)-3,4-dihydropyrido[4,3-d]pyrimidin-2(1H)-one]",>3,>5
"COc1cc(OC)c(F)c(N2Cc3cnc(-c4cn(C)nc4C)cc3N(Cc3cc(C)on3)C2=O)c1F [Example 31, 3-(2,6-difluoro-3,5-dimethoxyphenyl)-7-(1,3-dimethyl-1H-pyrazol-4-yl)-1-((5-methylisoxazol-3-yl)methyl)-3,4-dihydropyrido[4,3-d]pyrimidin-2(1H)-one]",>5,>10
"COc1cc(OC)c(F)c(N2Cc3cnc(-c4cn(C)nc4C)cc3N(c3cnn(C4CC4)c3)C2=O)c1F [Example 130, 1-(1-cyclopropyl-1H-pyrazol-4-yl)-3-(2,6-difluoro-3,5-dimethoxyphenyl)-7-(1,3-dimethyl-1H-pyrazol-4-yl)-3,4-dihydropyrido[4,3-d]pyrimidin-2(1H)-one]",>5,>5
"COc1cc(N2C(=O)N(c3c(F)c(OC)cc(OC)c3F)Cc3cnc(-c4cn(C)nc4C)cc32)ccc1C#N [Example 81, 4-(3-(2,6-difluoro-3,5-dimethoxyphenyl)-7-(1,3-dimethyl-1H-pyrazol-4-yl)-2-oxo-3,4-dihydropyrido[4,3-d]pyrimidin-1(2H)-yl)-2-methoxybenzonitrile]",>5,>10
"CCCN1C(=O)N(c2c(F)c(OC)cc(OC)c2F)Cc2cnc(-c3cn(C)nc3C)cc21 [Example 30, 3-(2,6-difluoro-3,5-dimethoxyphenyl)-7-(1,3-dimethyl-1H-pyrazol-4-yl)-1-propyl-3,4-dihydropyrido[4,3-d]pyrimidin-2(1H)-one]",>1,>5
"COc1cc(OC)c(F)c(N2Cc3cnc(-c4cn(C)nc4C)cc3N(c3ccc4cn[nH]c4c3)C2=O)c1F [Example 133, 3-(2,6-difluoro-3,5-dimethoxyphenyl)-7-(1,3-dimethyl-1H-pyrazol-4-yl)-1-(1H-indazol-6-yl)-3,4-dihydropyrido[4,3-d]pyrimidin-2(1H)-one]",>3,>5
"COc1cc(OC)c(F)c(N2Cc3cnc(-c4cn(C)nc4C)cc3N(c3cccnc3)C2=O)c1F [Example 86, 3-(2,6-difluoro-3,5-dimethoxyphenyl)-7-(1,3-dimethyl-1H-pyrazol-4-yl)-1-(pyridin-3-yl)-3,4-dihydropyrido[4,3-d]pyrimidin-2(1H)-one]",>5,>10
"COc1cc(OC)c(F)c(N2Cc3cnc(-c4ccc(C#N)nc4)cc3C3(CC3)C2=O)c1F [Example 20, 5-(2′-(2,6-difluoro-3,5-dimethoxyphenyl)-3′-oxo-2′,3′-dihydro-1′H-spiro[cyclopropane-1,4′-[2,7]naphthyridine]-6′-yl)picolinonitrile]",>5,–
